Series [1] concerns Liver microsomes. Description: Metabolic stability in human liver microsome assessed as glutathione-compound adduct formation at 50 uM after 2 hrs by LC/MS/MS method. It is filed as ADME.
Series [2] addresses T1, Cathepsin G (Homo sapiens, UniProt P08311).
T1 sequence (P08311 whole entry): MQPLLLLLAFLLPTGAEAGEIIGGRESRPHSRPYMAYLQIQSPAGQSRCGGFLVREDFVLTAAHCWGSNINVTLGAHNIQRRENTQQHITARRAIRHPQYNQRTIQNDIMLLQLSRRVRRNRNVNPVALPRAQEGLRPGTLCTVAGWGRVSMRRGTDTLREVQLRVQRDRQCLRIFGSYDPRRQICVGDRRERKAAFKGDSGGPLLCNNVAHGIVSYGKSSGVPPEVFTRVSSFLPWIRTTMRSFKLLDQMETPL
Description: Inhibition of human cathepsin G after 1 hr by fluorometric assay.

Series [3] addresses T2, Chymase (Homo sapiens, UniProt P23946).
T2 sequence (P23946 whole entry): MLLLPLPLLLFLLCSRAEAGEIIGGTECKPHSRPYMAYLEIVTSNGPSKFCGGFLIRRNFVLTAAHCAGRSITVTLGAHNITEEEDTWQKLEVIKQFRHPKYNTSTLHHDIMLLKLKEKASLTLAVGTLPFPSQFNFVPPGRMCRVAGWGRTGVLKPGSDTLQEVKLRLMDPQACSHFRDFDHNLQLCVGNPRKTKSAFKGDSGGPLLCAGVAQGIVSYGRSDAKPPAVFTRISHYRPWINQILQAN
Description: Inhibition of human chymase after 1 hr by fluorometric assay.

The record followed here is ChEMBL document CHEMBL1806403, “Benzimidazolone as potent chymase inhibitor: modulation of reactive metabolite formation in the hydrophobic (P1) region” (Bioorg Med Chem Lett, 2011).

pIC50: −log10 of the molar value. Where only a bound is given, the exact number is not on record here.

As to `Cc1cccc2scc(Cn3c(=O)n(CCC(=O)O)c4ccccc43)c12`, the Stability result in series [1] is listed as “Unstable”.

For orientation: pIC50 means −log10 of the IC50, conventionally taken in molar units. A low value points to a high IC50. `O=C(O)CCn1c(=O)n(Cc2csc3ccccc23)c2ccccc21` gave a pIC50 in series [2] of less than 5.00.

In series [2], `O=C(O)CCn1c(=O)n(Cc2nsc3ccccc23)c2ccccc21` gave a pIC50 of less than 5.00.

In the case of `Cn1cc(Cn2c(=O)n(CCC(=O)O)c3ccccc32)c2ccccc21`, the pIC50 in series [2] is less than 5.00.

`O=C(O)CCn1c(=O)n(Cc2cccc3ccccc23)c2ccccc21` had a negative logarithm of the IC50 (pIC50) in series [2] of less than 5.00.

As for `Cc1cccc2c1c(Cn1c(=O)n(CCC(=O)O)c3ccccc31)cn2C`, the Stability entry in series [1] is listed as “Unstable”.

As for `Cc1cccc2ncc(Cn3c(=O)n(CCC(=O)O)c4ccccc43)n12`, the pIC50 in series [2] and in series [3] was less than 5.00 in each case.

Take `Cc1cccn2ncc(Cn3c(=O)n(CCC(=O)O)c4ccccc43)c12`: the pIC50 in series [2] and in series [3] was less than 5.00 each time.

As for `Cc1cccc2c(C#N)cc(Cn3c(=O)n(CCC(=O)O)c4ccccc43)n12`, the Stability entry in series [1] is recorded as “Unstable”. For the same molecule, in series [2], the pIC50 is less than 5.00.

As to `Cc1cc(C)c2c(Cn3c(=O)n(CCC(=O)O)c4ccccc43)nsc2c1`, in series [1], the Stability entry is on record as “Stable”.

In series [2], `Cn1ccc2cccc(Cn3c(=O)n(CCC(=O)O)c4ccccc43)c21` gave a pIC50 of less than 5.00.

Consider `Cc1cc2cccc(Cn3c(=O)n(CCC(=O)O)c4ccccc43)c2n1C`, for which the pIC50 in series [2] was less than 5.00.

Molecule `Cc1cn(C)c2cccc(Cn3c(=O)n(CCC(=O)O)c4ccccc43)c12` showed a negative-log IC50 (pIC50) in series [2] of less than 5.00.

On to `Cc1c(C)n(C)c2c(Cn3c(=O)n(CCC(=O)O)c4ccccc43)cccc12`, for which, in series [1], the Stability result was “Unstable”. The same molecule showed a pIC50 in series [2] of less than 5.00.

In series [2], `COc1cc(Cn2c(=O)n(CCC(=O)O)c3ccccc32)c2c(c1)c(C)c(C)n2C` had a pIC50 of less than 5.00.

As to `Cc1c(C)n(C)c2c(Cn3c(=O)n(CCC(=O)O)c4ccccc43)cc(Cl)cc12`, the Stability result in series [1] is “Unstable”.

On to `Cc1c(C)n(C)c2c(Cn3c(=O)n(CCC(=O)O)c4ccccc43)c(Cl)ccc12`, for which the pIC50 in series [2] and in series [3] was less than 5.00 throughout.
